Patent US20170150719A1, “FUNGICIDAL PYRAZOLES AND THEIR MIXTURES” (E I DU PONT DE NEMOURS AND COMPANY, priority 2010, published 2017)
Marks after values point to notes of the source that are not given here.

What was measured:
[1] = tested on: Puccinia recondita f. sp. tritici; test: Test G: wheat leaf rust, spray after inoculation (curative) on wheat seedlings, visual disease rating; format: in vivo; settings: for Test G rating (disease control) / Test G rating (% disease control) / pest or weed control at 200 µg/mL: 100 = 100% disease control; for Test G rating (disease control) / pest or weed control at 200 µg/mL: 0 = no disease control; for Test G rating (% disease control): spray after inoculation, rating without asterisk
Source text: (§1) A hyphen (-) indicates no test results.

[2] = tested on: Puccinia recondita f. sp. tritici; test: Test H: wheat leaf rust, preventive spray on wheat seedlings, visual disease rating; settings: for Test H rating (disease control): sprayed the day before inoculation; for Test H rating (disease control) / Test H rating (% disease control) / pest or weed control at 200 µg/mL: 100 = 100% disease control; for Test H rating (disease control) / pest or weed control at 200 µg/mL: 0 = no disease control; for Test H rating (% disease control): preventive spray, rating without asterisk; for pest or weed control at 200 µg/mL: read-out: Test H rating (disease control), wheat leaf rust, sprayed the day before inoculation
[3] = tested on: Botrytis cinerea; test: Test A: tomato Botrytis, preventive spray on tomato seedlings, visual disease rating; settings: for Test A rating (disease control) / pest or weed control at 200 µg/mL: 0 = no disease control relative to the controls; for pest or weed control at 200 µg/mL: Botrytis cinerea, in Solanum lycopersicum, read-out: Test A rating (disease control), tomato Botrytis
Protocol: General protocol for preparing test suspensions for Tests A-I: the test compounds were first dissolved in acetone in an amount equal to 3% of the final volume and then suspended at the desired concentration (in ppm) in acetone and purified water (50/50 mix by volume) containing 250 ppm of the surfactant Trem® 014 (polyhydric alcohol esters). The resulting test suspensions were then used in Tests A-I. Each test was conducted in triplicate, and the results were averaged. Spraying a 200 ppm test suspension to the point of run-off on the test plants was the equivalent of a rate of about 800 g/ha. Unless otherwise indicated, the rating values indicate a 200 ppm test suspension was used. (An asterisk “*” next to the rating value indicates a 40 ppm test suspension was used.)
The test suspension was sprayed to the point of run-off on tomato seedlings. The following day the seedlings were inoculated with a spore suspension of Botrytis cinerea (the causal agent of tomato Botrytis) and incubated in saturated atmosphere at 20° C. for 48 h, and then moved to a growth chamber at 24° C. for 3 additional days, after which time visual disease ratings were made.

[4] = tested on: Alternaria solani; test: Test B: tomato early blight, preventive spray on tomato seedlings, visual disease rating; settings: for Test B rating (disease control) / Test B rating (% disease control): 100 = 100% disease control; for Test B rating (disease control): 0 = no disease control relative to the controls; for Test B rating (% disease control): preventive spray, rating without asterisk; for pest or weed control at 200 µg/mL: Alternaria solani, in Solanum lycopersicum, read-out: Test B rating (disease control)
[5] = tested on: Blumeria graminis f. sp. tritici; test: Test I: wheat powdery mildew, preventive spray on wheat seedlings, visual disease rating; settings: for Test I rating (disease control) / Test I rating (% disease control) / pest or weed control at 200 µg/mL: 100 = 100% disease control; for Test I rating (disease control) / pest or weed control at 200 µg/mL: 0 = no disease control relative to the controls; for Test I rating (% disease control): preventive spray, rating without asterisk; for pest or weed control at 200 µg/mL: Blumeria graminis, in Triticum aestivum, read-out: Test I rating (disease control), wheat powdery mildew
[6] = tested on: Septoria nodorum; test: Test E: Septoria glume blotch, preventive spray on wheat seedlings, visual disease rating; settings: for Test E rating (disease control) / Test E rating (% disease control) / pest or weed control at 200 µg/mL: 100 = 100% disease control; for Test E rating (disease control) / pest or weed control at 200 µg/mL: 0 = no disease control relative to the controls; for Test E rating (% disease control): Septoria glume blotch on wheat, preventive spray, rating without asterisk; for pest or weed control at 200 µg/mL: Parastagonospora nodorum, in Triticum aestivum, read-out: Test E rating (disease control), Septoria glume blotch
[7] = tested on: Septoria tritici; test: Test F: wheat leaf blotch, preventive spray on wheat seedlings, visual disease rating; format: in vivo; design: Test F rating (disease control), value marked *: concentration or dose not given beside the values; settings: for Test F rating (% disease control): preventive spray, rating without asterisk; for pest or weed control at 200 µg/mL: Zymoseptoria tritici; for Test F rating (disease control), value marked *: rating marked with asterisk (*), other test condition, not explained in the text shown
Source text: as §1

[8] = tomato Botrytis, 100 = 100% disease control
[9] = 100 = 100% disease control, 0 = no disease control relative to the controls

Structure (SMILES) | pest or weed control at 200 µg/mL [7, 9] [%] | pest or weed control at 200 µg/mL ([1]; sprayed after inoculation) [%] | pest or weed control at 200 µg/mL [2] [%] | pest or weed control at 200 µg/mL ([3]; 100 = 100% disease control) [%] | pest or weed control at 200 µg/mL [4] [%] | pest or weed control at 200 µg/mL [5] [%] | pest or weed control at 200 µg/mL [6] [%] | other results
Cc1nn(C)c(C(O)c2ccc(Cl)cc2F)c1-c1ccc(F)cc1Cl (racemic) [compound 177] |  |  |  |  |  |  |  | Test G rating (disease control) ([1]; sprayed after inoculation): 0%; Test H rating (disease control) ([2]; wheat leaf rust): 0%; Test A rating (disease control) [3, 8]: 99%; Test B rating (disease control) ([4]; tomato early blight): 0%; Test I rating (disease control) ([5]; wheat powdery mildew): 48%; Test E rating (disease control) ([6]; Septoria glume blotch): 0%
Cc1nn(C)c(C(O)c2c(F)cc(F)cc2F)c1-c1ccc(F)cc1Cl (racemic) [compound 178] |  |  |  |  |  |  |  | Test G rating (disease control) ([1]; sprayed after inoculation): 98%; Test H rating (disease control) ([2]; wheat leaf rust): 100%; Test A rating (disease control) [3, 8]: 100%; Test B rating (disease control) ([4]; tomato early blight): 33%; Test I rating (disease control) ([5]; wheat powdery mildew): 74%; Test E rating (disease control) ([6]; Septoria glume blotch): 0%
Cc1nn(C)c(C(O)c2ccc(C#N)cc2F)c1-c1ccc(F)cc1Cl (racemic) [compound 179] |  |  |  |  |  |  |  | Test G rating (% disease control) [1]: 9%; Test H rating (% disease control) ([2]; wheat leaf rust): 99%; Test A rating (% disease control) ([3]; tomato Botrytis, preventive spray, 100 = 100% disease control, 0 = no control relative to controls, rating without asterisk): 96%; Test B rating (% disease control) ([4]; tomato early blight): 16%; Test I rating (% disease control) ([5]; wheat powdery mildew): 0%; Test E rating (% disease control) [6]: 0%
COc1ccc(-c2c(C)nn(C)c2C(O)c2c(F)cc(Cl)cc2F)c(Cl)c1 (racemic) [compound 224] |  |  |  |  |  |  |  | Test F rating (% disease control) ([7]; 100 = 100% disease control): 100%; Test G rating (% disease control) [1]: 54%; Test H rating (% disease control) ([2]; wheat leaf rust): 100%; Test B rating (% disease control) ([4]; tomato early blight): 100%; Test I rating (% disease control) ([5]; wheat powdery mildew): 94%; Test E rating (% disease control) [6]: 89%
COc1cc(F)c(Nc2c(-c3ccc(F)cc3Cl)c(C)nn2C)c(F)c1 [Compound 3, 4-(2-chloro-4-fluorophenyl)-N-(2,6-difluoro-4-methoxyphenyl)-1,3-dimethyl-1H-pyrazol-5-amine] | 97 | 96 | 100 | 100 | 100 | 100 | 93 | 
Cc1nn(C)c(Nc2c(F)cc(F)cc2F)c1-c1ccc(F)cc1Cl [Compound 4, 4-(2-chloro-4-fluorophenyl)-1,3-dimethyl-N-(2,4,6-trifluorophenyl)-1H-pyrazol-5-amine] | 95 | 99 | 100 | 99 | 100 | 100 | 99 | 
COc1cc(F)c(-c2c(C)nn(C)c2Nc2ccc(F)cc2F)c(F)c1 [Compound 6, 4-(2,6-difluoro-4-methoxyphenyl)-N-(2,4-difluorophenyl)-1,3-dimethyl-1H-pyrazol-5-amine] | 93 | 92 | 100 | 98 | 100 | 100 | 99 | 
COc1cc(F)c(-c2c(C)nn(C)c2Nc2c(F)cc(F)cc2F)c(F)c1 [Compound 7, 4-(2,6-difluoro-4-methoxyphenyl)-1,3-dimethyl-N-(2,4,6-trifluorophenyl)-1H-pyrazol-5-amine] | 94 | 9 | 97 | 98 | 100 | 100 | 0 | 
Cc1nn(C)c(Oc2c(F)cc(C#N)cc2F)c1-c1c(F)cc(F)cc1F [Compound 8, 4-[[1,3-dimethyl-4-(2,4,6-trifluorophenyl)-1H-pyrazol-5-yl]oxy]-3,5-difluorobenzonitrile] |  |  |  |  |  |  |  | Test F rating (disease control), value marked * [7]: 47* %; Test G rating (disease control), value marked * ([1]; sprayed after inoculation, rating marked with asterisk (*), not explained in the text shown): 15* %; Test H rating (disease control), value marked * ([2]; wheat leaf rust, preventive, rating marked with asterisk (*), not explained in the text shown): 79* %; Test A rating (disease control), value marked * ([3]; tomato Botrytis, rating marked with asterisk (*), other test condition, not explained in the text shown): 99* %; Test B rating (disease control), value marked * ([4]; tomato early blight, rating marked with asterisk (*), other test condition, not explained in the text shown): 98* %; Test I rating (disease control), value marked * ([5]; wheat powdery mildew, rating marked with asterisk (*), not explained in the text shown): 60* %; Test E rating (disease control), value marked * ([6]; Septoria glume blotch, rating marked with asterisk (*), other test condition, not explained in the text shown): 0* %
Cc1nn(C)c(Nc2c(F)cc(F)cc2F)c1-c1ccc(F)cc1F [Compound 11, 4-(2,4-difluorophenyl)-1,3-dimethyl-N-(2,4,6-trifluorophenyl)-1H-pyrazol-5-amine] | 94 | 0 | 100 | 100 | 99 | 99 | 90 | 
Cc1nn(C)c(Oc2c(F)cc(C#N)cc2F)c1-c1ccc(F)cc1Cl [Compound 13, 4-[[4-(2-chloro-4-fluorophenyl)-1,3-dimethyl-1H-pyrazol-5-yl]oxy]-3,5-difluorobenzonitrile] | 100 | 7 | 100 | 100 | 100 | 100 | 100 | 
COc1cc(F)c(-c2c(C)nn(C)c2Oc2c(F)cc(Cl)cc2F)c(F)c1 [Compound 15] |  |  |  |  |  |  |  | Test F rating (disease control) [7, 9]: 98%; Test G rating (disease control) ([1]; sprayed after inoculation): 82%; Test H rating (disease control) ([2]; wheat leaf rust): 100%; Test A rating (disease control) [3, 8]: 98%; Test B rating (disease control) ([4]; tomato early blight): 100%; Test I rating (disease control) ([5]; wheat powdery mildew): 100%; Test E rating (disease control) ([6]; Septoria glume blotch): 89%
Cc1nn(C)c(Nc2ccc(F)cc2F)c1-c1ccc(Cl)cc1Cl [Compound 17, 4-(2,4-dichlorophenyl)-N-(2,4-difluorophenyl)-1,3-dimethyl-1H-pyrazol-5-amine] | 99 | 91 | 99 | 100 | 73 | 100 | 60 | 
COc1cc(F)c(-c2c(C)nn(C)c2Nc2ccc(F)cc2Cl)c(F)c1 [Compound 23, N-(2-chloro-4-fluorophenyl)-4-(2,6-difluoro-4-methoxyphenyl)-1,3-dimethyl-1H-pyrazol-5-amine] | 98 | 85 | 99 | 100 | 100 | 100 | 95 | 
Cc1nn(C)c(C(O)c2ccc(F)cc2Br)c1-c1ccc(F)cc1Cl (stereo not drawn) [Compound 153, α-(2-bromo-4-fluorophenyl)-4-(2-chloro-4-fluorophenyl)-1,3-dimethyl-1H-pyrazole-5-methanol] | 100 | 0 | 96 |  | 0 | 0 | 0 | 
CCOc1ccc(-c2c(C)nn(C)c2Nc2ccc(F)cc2F)c(F)c1 [Compound 193] |  |  |  |  |  |  |  | Test F rating (% disease control) ([7]; 100 = 100% disease control): 100%; Test G rating (% disease control) [1]: 0%; Test H rating (% disease control) ([2]; wheat leaf rust): 27%; Test B rating (% disease control) ([4]; tomato early blight): 58%; Test I rating (% disease control) ([5]; wheat powdery mildew): 92%; Test E rating (% disease control) [6]: 0%
COc1ccc(Oc2c(-c3ccc(F)cc3Cl)c(C)nn2C)c(F)c1 [compound 5] |  |  |  |  |  |  |  | Test F rating (disease control), value marked * [7]: 97* %; Test H rating (disease control) ([2]; wheat leaf rust): 100%; Test A rating (disease control) [3, 8]: 98%; Test B rating (disease control) ([4]; tomato early blight): 100%; Test I rating (disease control) ([5]; wheat powdery mildew): 99%; Test E rating (disease control) ([6]; Septoria glume blotch): 97%
COc1ccc(-c2c(C)nn(C)c2Nc2c(Cl)cc(F)cc2Cl)c(F)c1 [compound 194] |  |  |  |  |  |  |  | Test F rating (% disease control) ([7]; 100 = 100% disease control): 100%; Test G rating (% disease control) [1]: 0%; Test H rating (% disease control) ([2]; wheat leaf rust): 95%; Test B rating (% disease control) ([4]; tomato early blight): 93%; Test I rating (% disease control) ([5]; wheat powdery mildew): 63%; Test E rating (% disease control) [6]: 87%
